Data from paper PMC10531095, “Photonics of Some Monomethine Cyanine Dyes in Solutions and in Complexes with Biomolecules” (International Journal of Molecular Sciences, 2023).

What was measured:
ssDNA = experiment: Spectral fluorescent titration of the dyes with ssDNA in PBS; type: binding, chick; conditions: for φfl^b, fluorescence quantum yield of the dye in the presence of biopolymer: cssDNA~5 × 10^−5 mol L^−1; for decrease of the observed extinction coefficients: cssDNA~8 × 10^−5 mol L^−1; for LOD: detection of ssDNA; for LOQ: quantification of ssDNA; for K1Sc, complexation constant (Scatchard) / nHill, Hill coefficient / KeffHill, effective complexation constant (Hill) / KeffBH, effective complexation constant (Benesi–Hildebrand) / αb, proportion of bound dye / K2Sc, complexation constant (Scatchard) / Fmax/F0, fluorescence growth at 100% binding / nSc, stoichiometric coefficient (Scatchard): ssDNA; for KeffHill, effective complexation constant (Hill) / KeffBH, effective complexation constant (Benesi–Hildebrand): PBS buffer; for KeffBH, effective complexation constant (Benesi–Hildebrand): fluorescent titration; for αb, proportion of bound dye: cbiomol = 5 × 10^−5 mol L^−1; for K2Sc, complexation constant (Scatchard): constant and nSc both varied; for Fmax/F0, fluorescence growth at 100% binding: from the Benesi–Hildebrand dependence; for nSc, stoichiometric coefficient (Scatchard): per one base
Source text: Complexation of MCD 1–4 with DNA (double-stranded and single-stranded) and with human serum albumin (HSA) was studied by spectral fluorescent methods in a wide range of biopolymer concentrations (cdsDNA = 0–1.5 × 10^−4 mol L^−1; cssDNA = 0–1.4 × 10^−4 mol L^−1; cHSA = 0–1.4 × 10^−4 mol L^−1 in PBS buffer). The absorption, fluorescence, and fluorescence excitation spectra of MCD 1 and 3 in the presence of dsDNA are shown in Figure 3 and Figure 4, respectively.
The complication of chemical equilibrium, and the variety of interactions between MCD and biopolymer (dye aggregation/deaggregation, the possibility of forming complexes of several types with DNA/HSA) makes it problematic to determine the exact values of the complexation constants of the dyes with DNA. The values of the effective equilibrium constants of the complexation reaction of MCD with biopolymers (Keff, L mol^−1, see Table 7) were estimated from spectral fluorescent data. In this case, we had to assume a simple equilibrium MCD (monomer, free) ⇄ MCD (monomer, bound). For these purposes, we used the Benesi–Hildebrand [59], Hill, and Scatchard formalisms (See Supplementary Materials, Equations (S9)–(S13)). For dsDNA, fitting according to the modified Scatchard equation was carried out assuming one dye molecule per one DNA turn (K1Sc at nSc = const = 10 b.p.), as well as varying both the constant (K2Sc) and the stoichiometric coefficient (nSc). In the case of ssDNA, nSc is given per one base; for HSA, nSc = 1.
Single-stranded form of DNA (single-stranded DNA; ssDNA) was obtained according to the method described in [74]. The concentrations of DNA and the dyes were controlled spectrophotometrically. Molar extinction coefficient of dsDNA (ε, L⋅mol^−1⋅cm^−1) was taken to be 13,200 L mol^−1 cm^−1 (per base pair); for ssDNA, ε = 9045 L mol^−1 cm^−1 (per one base) was used. For MCD 1 and 2 in an aqueous buffer solution, we used extinction coefficients ε = 40,000 and 68,000 L mol^−1 cm^−1, respectively, which were taken from. For MCD 3 and 4, the molar extinction coefficients in ethanol solution were 69,200 and 49,000 L mol^−1 cm^−1 (taken from). […] Spectral fluorescent characteristics of MCD in complexes with biomacromolecules were studied by titration of dye solutions (see Supplementary Materials). The thermal dissociation (“melting”) of dsDNA in the presence of MCD was studied spectrophotometrically (λabs = 260 nm), the sample was heated (t° = 30–95 °C) using Peltier cells, and the temperature was controlled using a thermocouple. Melting points tm, corresponding to 50% hyperchromia of DNA samples were obtained.
(§1) Absorption spectra were recorded on an SF-2000 spectrophotometer (Experimental-Construction Company “Spectrum”, St. Petersburg, Russia); fluorescence and fluorescence excitation spectra were recorded on a Fluorat-02-Panorama spectrofluorimeter (Group of Companies “Lumex”, St. Petersburg, Russia). The fluorescence and fluorescence excitation spectra were corrected for the spectral characteristics of the instrument (excitation channel signal) and sample transmission. Changes in the intrinsic fluorescence of HSA upon binding of MCD (in the presence of the dyes) were recorded in the synchronous fluorescence scanning (SFS) mode. In SFS mode, when registering spectra, a fixed difference Δλ= λfl − λex is maintained for the channels of excitation and registration. Synchronous scanning spectra were obtained at Δλ = 15 nm (fluorescence of tyrosine residues in the HSA molecule) and Δλ = 60 nm (fluorescence of tryptophan). The spectra were measured in 1 cm quartz semi-micro cells (Bio-Rad, Hercules, CA, USA).
The equilibrium constants of MCD complexation with biomolecules (Ka, L mol^−1) were obtained from fluorescence spectra using the Benesi–Hildebrand [59], Hill, and Scatchard equations [61] (see Supplementary Materials, Equations (S9)–(S13)). […]

HSA = biological target: T1, HSA (Homo sapiens, UniProt P02768); experiment: Quenching of HSA intrinsic fluorescence by MCD, synchronous fluorescence scanning; type: binding; conditions: for decrease of the intensity of the SFS band of HSA, tyrosine: Δλ = 15 nm; for decrease of the intensity of the SFS band of HSA, tyrosine / decrease of the intensity of the SFS band of HSA, tryptophan: cMCD up to 5.3 × 10^−5 mol L^−1; for decrease of the intensity of the SFS band of HSA, tryptophan: Δλ = 60 nm
T1 construct: purchased Sigma-Aldrich
Procedure: In order to determine the binding sites of HSA when interacting with MCD and to evaluate possible changes in these sites, the fluorescence spectra of tyrosine and tryptophan groups of HSA in the presence of MCD were measured in the synchronous fluorescence scanning (SFS) mode. The positions of the SF spectra of protein amino acid residues depend on their microsolvation (micropolarity of the medium). Thus, SFS allows for obtaining data on the effect of complexation on the microenvironment of fluorophore groups of protein molecules.
Quenching of intrinsic HSA fluorescence was analyzed using the Stern–Volmer and Lehrer–Leavis relationships (see Equations (3) and (4)). The experimental dependences approximated by linear anamorphoses (R^2~0.9–0.98) were better in the coordinates of the Lehrer–Leavis model than in the Stern–Volmer model (the Stern–Volmer plots were nonlinear). The Lehrer–Leavis model assumes partial accessibility of HSA chromophores for quenching by MCD (the resulting quenching constants are shown in Table 6).
as §1
The Stern–Volmer (Equation (3)) and Lehrer–Leavis (Equation (4)) dependences were used to analyze the results of measurements of HSA intrinsic fluorescence (synchronous scanning mode) in the presence of MCD [56, 57]. (3) I0/I=1 + KSV[Q] (4) I0/(I0−I)=1 /α+ 1/(αKSV[Q]) where I0 and I are the fluorescence intensities in the absence and in the presence of a quencher, respectively; [Q] is the quencher concentration; KSV is the Stern–Volmer quenching constant; and α is the proportion of fluorophores in the biomolecule available to the quencher in the Lehrer–Leavis model. […]
1. Spectral‐Fluorescent Titration
In experiments on spectral‐fluorescence titration, MCD 1–4 were dosed from their concentrated st ock solutions in EtOH. Microvolumes (~0.5–5 μL) were dosed into the measuring cell (dilution 1:500 – 1:1000).
In experiments with biomacromolecules, microvolumes of concentrated stock solutions of dsDNA, ssDNA and HSA were injected directly into the cells. Spectral‐fluorescent characteristics of MCD in complexes with biomacromolecules were studied by titration of dye solutions (cdye ~ 1 – 2 × 10–6 mol L–1) with increasing concentrations of biopolymers. Measurements of the intrinsic fluorescence of HSA in the presence of MCD were carried out at a constant concentration of HSA (cHSA ~ 2.0 × 10–5 mol L–1) by titration with increasing concentrations of dyes. After stirring, the absorption and fluorescence spectra of the dyes were recorded several times. Upon registration, the fluorescence and fl uorescence excitation spectra were corrected for the spectral characteristic of the excitation channel and for the absorption of […]
2. Fluorescence Quantum Yields
Determination of the fluorescence quantum yields of MCD 1–4 was performed using the standard […]

T1 sequence (P02768 25-609): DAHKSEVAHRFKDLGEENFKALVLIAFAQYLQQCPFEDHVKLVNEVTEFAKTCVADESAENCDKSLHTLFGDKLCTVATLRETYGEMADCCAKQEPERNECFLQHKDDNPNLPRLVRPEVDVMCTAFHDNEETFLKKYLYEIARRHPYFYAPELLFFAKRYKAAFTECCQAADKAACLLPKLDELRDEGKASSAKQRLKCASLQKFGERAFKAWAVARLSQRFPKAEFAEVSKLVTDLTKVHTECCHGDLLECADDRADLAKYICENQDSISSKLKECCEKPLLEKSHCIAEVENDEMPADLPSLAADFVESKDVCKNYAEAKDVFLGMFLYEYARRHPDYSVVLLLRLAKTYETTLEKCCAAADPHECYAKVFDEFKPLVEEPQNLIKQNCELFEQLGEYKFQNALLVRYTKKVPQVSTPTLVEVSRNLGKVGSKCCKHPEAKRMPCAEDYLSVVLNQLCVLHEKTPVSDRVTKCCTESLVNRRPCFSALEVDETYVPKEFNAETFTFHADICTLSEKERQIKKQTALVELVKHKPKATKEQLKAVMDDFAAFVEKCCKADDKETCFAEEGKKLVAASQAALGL

SMILES: CC[N+](CC)(CC)CCC[n+]1ccc(/C=C2\Sc3ccccc3N2C)c2ccc(O)cc21 [MCD 1]
- Ifl/Ifl0, relative increase in the fluorescence intensity (ssDNA; cssDNA = 5 × 10^−5 mol L^−1): ~ 40
- φfl^b, fluorescence quantum yield of the dye in the presence of biopolymer (ssDNA): 12 ± 1.5%
- decrease of the observed extinction coefficients (ssDNA): 40%
- LOD (ssDNA): 40 nM
- LOQ (ssDNA): 120 nM
- K1Sc, complexation constant (Scatchard) (ssDNA): 228000 L/mol
- nHill, Hill coefficient (ssDNA): 0.7
- KeffHill, effective complexation constant (Hill) (ssDNA): 2830 L/mol
- KeffBH, effective complexation constant (Benesi–Hildebrand) (ssDNA): 24200 L/mol
- αb, proportion of bound dye (ssDNA): 60%
- K2Sc, complexation constant (Scatchard) (ssDNA): 159000 L/mol
- Fmax/F0, fluorescence growth at 100% binding (ssDNA): 60.9
- nSc, stoichiometric coefficient (Scatchard) (ssDNA): 2
- KSV, Stern–Volmer quenching constant (Lehrer–Leavis model) (HSA; Trp, SFS Δλ = 60 nm): 40400 L/mol
- α, proportion of fluorophores available to the quencher (Lehrer–Leavis model) (HSA; Trp, SFS Δλ = 60 nm): 0.40
- KSV, Stern–Volmer quenching constant (Lehrer–Leavis model) (HSA; Tyr, SFS Δλ = 15 nm): 21800 L/mol
- α, proportion of fluorophores available to the quencher (Lehrer–Leavis model) (HSA; Tyr, SFS Δλ = 15 nm): 0.61
- decrease of the intensity of the SFS band of HSA, tyrosine (HSA): 31%
- decrease of the intensity of the SFS band of HSA, tryptophan (HSA): 26%

SMILES: CCN1/C(=C/c2sc3ccccc3[n+]2CC)Sc2ccccc21 [MCD 3]
- φfl^b, fluorescence quantum yield of the dye in the presence of biopolymer (ssDNA): 4.7 ± 0.5%
- LOD (ssDNA): 87 nM
- LOQ (ssDNA): 260 nM
- K1Sc, complexation constant (Scatchard) (ssDNA): 112000 L/mol
- nHill, Hill coefficient (ssDNA): 0.76
- KeffHill, effective complexation constant (Hill) (ssDNA): 2940 L/mol
- KeffBH, effective complexation constant (Benesi–Hildebrand) (ssDNA): 11600 L/mol
- αb, proportion of bound dye (ssDNA): 37%
- K2Sc, complexation constant (Scatchard) (ssDNA): 430000 L/mol
- Fmax/F0, fluorescence growth at 100% binding (ssDNA): 71
- nSc, stoichiometric coefficient (Scatchard) (ssDNA): 37
- KSV, Stern–Volmer quenching constant (Lehrer–Leavis model) (HSA; Trp, SFS Δλ = 60 nm): 6.12e+07 L/mol
- α, proportion of fluorophores available to the quencher (Lehrer–Leavis model) (HSA; Trp, SFS Δλ = 60 nm): 0.82
- KSV, Stern–Volmer quenching constant (Lehrer–Leavis model) (HSA; Tyr, SFS Δλ = 15 nm): 112000 L/mol
- α, proportion of fluorophores available to the quencher (Lehrer–Leavis model) (HSA; Tyr, SFS Δλ = 15 nm): 0.15
- decrease of the intensity of the SFS band of HSA, tyrosine (HSA): 11%
- decrease of the intensity of the SFS band of HSA, tryptophan (HSA): 6%

SMILES: CCN1/C(=C/c2ccc3ccccc3[n+]2CC)C=Cc2ccccc21 [MCD 4]
- φfl^b, fluorescence quantum yield of the dye in the presence of biopolymer (ssDNA): ~1.4 ± 0.2%
- decrease of the observed extinction coefficients (ssDNA): 54%
- LOD (ssDNA): 760 nM
- LOQ (ssDNA): 2300 nM
- K1Sc, complexation constant (Scatchard) (ssDNA): 65000 L/mol
- nHill, Hill coefficient (ssDNA): 0.57
- KeffHill, effective complexation constant (Hill) (ssDNA): 350 L/mol
- KeffBH, effective complexation constant (Benesi–Hildebrand) (ssDNA): 6800 L/mol
- αb, proportion of bound dye (ssDNA): 25%
- K2Sc, complexation constant (Scatchard) (ssDNA): 19500 L/mol
- Fmax/F0, fluorescence growth at 100% binding (ssDNA): 61
- nSc, stoichiometric coefficient (Scatchard) (ssDNA): 3
- KSV, Stern–Volmer quenching constant (Lehrer–Leavis model) (HSA; Trp, SFS Δλ = 60 nm): 21000 L/mol
- α, proportion of fluorophores available to the quencher (Lehrer–Leavis model) (HSA; Trp, SFS Δλ = 60 nm): 0.60
- KSV, Stern–Volmer quenching constant (Lehrer–Leavis model) (HSA; Tyr, SFS Δλ = 15 nm): 38200 L/mol
- α, proportion of fluorophores available to the quencher (Lehrer–Leavis model) (HSA; Tyr, SFS Δλ = 15 nm): 0.33
- decrease of the intensity of the SFS band of HSA, tyrosine (HSA): 21%
- decrease of the intensity of the SFS band of HSA, tryptophan (HSA): 22%
